The values that follow are results of earlier work, collected in patent publication US8513439B2, “Antidepressant oral pharmaceutical compositions” (Wockhardt Limited, priority 2005, dated 2013).

One data set concerns dopaminergic receptors. The following applies: in vitro.
A further data set has as its system adrenergic receptors. Conditions: in vitro.
Another data set has as its system cholinergic receptors. The following applies: in vitro.
The next data set has as its system histaminergic receptors. The following applies: in vitro.
The conditions of data set [1]: in vivo.

For the molecule `CNCC[C@H](Oc1cccc2ccccc12)c1cccs1` [Duloxetine, (S)—N-methyl-3-(1-naphthyloxy)-3-(2-thienyl)propan-1-amine], in the data set with dopaminergic receptors, the “affinity for dopaminergic receptors” value is “no significant affinity”. For the same molecule, the “affinity for adrenergic receptors” value in the data set on adrenergic receptors is reported as “no significant affinity”. For the same molecule, the “affinity for cholinergic receptors” value with cholinergic receptors was “no significant affinity”. Besides, in the data set with histaminergic receptors, the “affinity for histaminergic receptors” value is reported as “no significant affinity”. In addition, in the data set with monoamine oxidase (MAO), the “inhibition of monoamine oxidase (MAO)” value is on record as “does not inhibit”. Moreover, the “dosage hydrolyzed to 1-naphthol” value (pH of 1.0, within one hour) is given as 50%. The “dosage degraded to 1-Naphthol” value (pH of 2.0, in one hour) was 10%. For the same molecule, the “time for 10% degradation” value (pH of 4.0) is recorded as “up to 63 hours”. In data set [1], the “enzymes metabolizing to inactive metabolites in the liver” value is “CYP1A2 and CYP2D6”; the protein bound is listed as more than 90%.
